The IC50 is the point on the concentration scale where inhibition reaches its midpoint. What is called GI50 is the concentration at which growth is held to half of that of the control.

SMILES strings stand for the structures. Read-outs that look alike come from different tables or passages of the source. Bounds are passed on as bounds.

For 4 compounds, IC50 and GI50 results are on record in patent publication US10208056B2, “Condensed tricyclic compounds as protein kinase inhibitors” (FUNDACIÓN DEL SECTOR PÚBLICO ESTATAL CENTRO NACIONAL DE …, priority 2015, dated 2019).

In one assay the target is CDK8/Cyclin C (Homo sapiens (Human), UniProt P49336). In words: CDK8/Cyclin C binding assay (LanthaScreen Eu-Kinase Binding Assay). The conditions noted are these: binding assay. As for the experimental part: The enzyme has been purchase from Invitrogen (PV4402) as a dimer of full-length His-tagged recombinant human proteins.
Assays were performed in 384-well plates. The final read out was generated using an EnVision plate reader (Perkin-Elmer).
(Time-resolved FRET reads energy transfer from a long-lived donor to a nearby acceptor.)

A further assay deals with Haspin kinase (Homo sapiens (Human), UniProt Q8TF76). In words: Haspin kinase assay (ADP-Glo). To be noted: ATP 150 μM. The class given is biochemical. The procedure, abridged: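 Compounds in 1:3 serial dilutions (1% DMSO final) were incubated 60 min at 30 °C with 20 nM recombinant GST-Haspin kinase domain and 150 μM ATP, without substrate, in pH 7.4 HEPES/MgCl2 buffer. ADP formed was read by luciferase luminescence and normalized to uninhibited enzyme to give % inhibition.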
In general terms: ADP-Glo first removes unused ATP, then detects ADP through luciferase.

The next assay deals with CDK19/Cyclin C (Homo sapiens (Human), UniProt Q9BWU1). Kind of assay: CDK19/Cyclin C binding assay (LanthaScreen Eu-Kinase Binding Assay). The conditions noted are these: read-out: CDK19-CYCC IC50. A digest of the protocol:
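LanthaScreen TR-FRET tracer-displacement format with 2 nM Cdk19-Cyclin C, 20 nM tracer and 2 nM Eu-anti-GST antibody. The buffer was 50 mM HEPES pH 7.5, 10 mM MgCl2, 1 mM EGTA, 0.01% Brij-35, with 1% DMSO final. Compounds were tested as 1:3 serial dilutions and incubated for 60 min at 25 °C.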

The test system of the next assay is MDA-MB-231. Kind of assay: In vitro cell proliferation assay (CellTiter-Glo), MDA-MB-231. The class given is cell-based. To be noted: Homo sapiens, MDA-MB-231, growth inhibition, read-out: GI50 MDA-MB-231. On the technique in general: ATP-based viability assays read luminescence as a measure of living cells.
In another assay the test system is Molm13. In words: In vitro cell proliferation assay (CellTiter-Glo), Molm13. It counts as cell-based. The conditions noted are these: Homo sapiens, MOLM-13, growth inhibition, read-out: GI50 Molm13.

Chain of CDK8/Cyclin C (P49336 whole entry): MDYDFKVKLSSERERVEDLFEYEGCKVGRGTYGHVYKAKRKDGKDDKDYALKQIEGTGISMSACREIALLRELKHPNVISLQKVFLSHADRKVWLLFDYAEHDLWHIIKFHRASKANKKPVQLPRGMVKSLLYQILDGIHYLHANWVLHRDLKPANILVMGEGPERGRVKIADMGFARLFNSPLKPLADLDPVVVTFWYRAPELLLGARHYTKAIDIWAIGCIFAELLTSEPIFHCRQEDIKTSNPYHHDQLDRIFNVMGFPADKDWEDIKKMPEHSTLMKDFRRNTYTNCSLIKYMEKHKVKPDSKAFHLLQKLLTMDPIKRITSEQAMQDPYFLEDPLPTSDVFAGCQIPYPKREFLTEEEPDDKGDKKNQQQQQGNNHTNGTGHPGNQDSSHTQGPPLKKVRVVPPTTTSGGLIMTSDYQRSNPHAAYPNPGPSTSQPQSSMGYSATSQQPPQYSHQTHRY
Chain of CDK8/Cyclin C (P24863 whole entry partner): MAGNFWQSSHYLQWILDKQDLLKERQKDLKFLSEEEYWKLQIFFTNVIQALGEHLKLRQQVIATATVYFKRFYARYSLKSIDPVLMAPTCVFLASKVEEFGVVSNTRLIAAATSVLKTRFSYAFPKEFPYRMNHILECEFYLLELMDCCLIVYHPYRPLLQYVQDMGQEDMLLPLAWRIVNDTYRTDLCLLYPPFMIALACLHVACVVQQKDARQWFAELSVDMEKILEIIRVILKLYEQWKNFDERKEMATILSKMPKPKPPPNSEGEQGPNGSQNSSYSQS
Chain of Haspin kinase (Q8TF76 484-798): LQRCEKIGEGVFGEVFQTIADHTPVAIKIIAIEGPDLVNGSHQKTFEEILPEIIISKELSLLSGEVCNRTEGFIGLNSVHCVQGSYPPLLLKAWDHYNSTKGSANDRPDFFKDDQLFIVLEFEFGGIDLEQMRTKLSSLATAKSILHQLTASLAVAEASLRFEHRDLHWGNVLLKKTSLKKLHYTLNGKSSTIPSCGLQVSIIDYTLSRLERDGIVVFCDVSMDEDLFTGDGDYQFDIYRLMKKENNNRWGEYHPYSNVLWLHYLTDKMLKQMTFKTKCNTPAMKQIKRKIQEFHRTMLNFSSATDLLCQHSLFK
Chain of CDK19/Cyclin C (Q9BWU1 whole entry): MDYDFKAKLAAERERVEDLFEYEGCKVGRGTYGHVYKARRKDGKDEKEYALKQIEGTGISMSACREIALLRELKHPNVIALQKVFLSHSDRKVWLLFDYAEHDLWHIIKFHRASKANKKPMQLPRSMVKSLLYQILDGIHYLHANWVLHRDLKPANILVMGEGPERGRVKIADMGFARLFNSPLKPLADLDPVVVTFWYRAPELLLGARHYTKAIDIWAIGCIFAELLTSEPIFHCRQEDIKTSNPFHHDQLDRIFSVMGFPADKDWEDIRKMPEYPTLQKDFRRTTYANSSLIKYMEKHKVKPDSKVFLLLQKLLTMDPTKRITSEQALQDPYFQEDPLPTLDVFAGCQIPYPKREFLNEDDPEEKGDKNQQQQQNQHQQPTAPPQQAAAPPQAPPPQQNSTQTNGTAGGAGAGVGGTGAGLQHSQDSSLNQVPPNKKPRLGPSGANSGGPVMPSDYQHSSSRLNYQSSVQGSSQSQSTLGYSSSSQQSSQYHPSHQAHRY
Chain of CDK19/Cyclin C (P24863 whole entry partner): as the sequence (P24863 whole entry partner) above

As for `NC(=O)c1cc2c([nH]1)-c1ccncc1O[C@H]2C1CCOCC1` (single isomer, unassigned) [Example 72], the IC50 was 4.46 nM on CDK8/Cyclin C, 406 nM at Haspin kinase and 14.2 nM on CDK19/Cyclin C. Also, the GI50 lay within 10000 to 100000 nM in the assay with MDA-MB-231 (semiquantitative) and 1000 to 10000 nM with Molm13 (semiquantitative).
`CCn1c(C(N)=O)cc2c1-c1ccncc1OC2(C)C` [Example 43]: the IC50 is 1.41 nM on CDK8/Cyclin C, 36.8 nM at Haspin kinase and 1.09 nM at CDK19/Cyclin C. Besides, the GI50 in the assay with MDA-MB-231 (quantitative) was 3500 nM; in the assay with Molm13 (quantitative), 349 nM.
`CC1(C)Oc2cnccc2-c2c1cc(C(N)=O)n2CCF` [Example 52]: the IC50 on CDK8/Cyclin C came to 1.41 nM; against Haspin kinase, 22.4 nM; on CDK19/Cyclin C it was 1.41 nM. Moreover, the concentration for 50% growth inhibition (GI50) with MDA-MB-231 (semiquantitative) is 1000 to 10000 nM; in the assay with Molm13 (semiquantitative), less than 1000 nM.
`CCn1c(C(N)=O)c(-c2ccccc2OC)c2c1-c1ccncc1OC2(C)C` [Example 68]: the IC50 on CDK8/Cyclin C worked out at 3.23 nM; on Haspin kinase, 354 nM; at CDK19/Cyclin C it was 16.4 nM. For the same compound, the 50% growth inhibitory concentration (GI50) with MDA-MB-231 (semiquantitative) is 10000 to 100000 nM; with Molm13 (semiquantitative), less than 1000 nM.
